Reference: US20180000085A1, “USE OF PICOLINAMIDE COMPOUNDS WITH FUNGICIDAL ACTIVITY” (DOW AGROSCIENCES LLC, priority 2014, published 2018)

Legend:
[1] = system: Zymoseptoria tritici; experiment: Leaf blotch of wheat (SEPTTR) disease control on wheat seedlings; type: in vivo; set-up: key to SEPTTR 1DP, HV activity at 100 ppm (% control rating) / SEPTTR 3DC, HV activity at 100 ppm (% control rating) / SEPTTR disease control, 1DP / SEPTTR disease control, 3DC / SEPTTR 1DP disease control rating, HV activity / SEPTTR 3DC disease control rating, HV activity / SEPTTR 3DC, LV activity at 125.1 g/H (% Control rating) / SEPTTR 1DP, LV activity at 125.1 g/H (% Control rating) / SEPTTR 1DP disease control rating, LV activity at 125.1 g/H / SEPTTR 3DC disease control rating, LV activity at 125.1 g/H / SEPTTR 3DC disease control rating, HV activity at 100 ppm / SEPTTR 1DP disease control rating, HV activity at 100 ppm / HV activity at 100 ppm SEPTTR 3DC (disease control rating) / HV activity at 100 ppm SEPTTR 1DP (disease control rating) / LV activity at 125.1 g/H SEPTTR 1DP (disease control rating) / LV activity at 125.1 g/H SEPTTR 3DC (disease control rating): A: > 80; B: ≤ 80; C: Not Tested; D: No Activity Observed in the Reported Assay; conditions: for SEPTTR 1DP disease control rating, HV activity at 100 ppm / SEPTTR 3DC disease control rating, HV activity at 100 ppm: high volume application; for SEPTTR 1DP disease control rating, HV activity at 100 ppm: 1 day protectant; for SEPTTR 3DC disease control rating, HV activity at 100 ppm: 3 day curative; for SEPTTR 1DP disease control rating, HV activity / SEPTTR 3DC disease control rating, HV activity: HV application at 100 ppm
[2] = system: Puccinia triticina; experiment: Wheat brown rust (PUCCRT) disease control on wheat seedlings; type: in vivo; set-up: key to PUCCRT 3DC, HV activity at 100 ppm (% control rating) / PUCCRT disease control, 3DC / PUCCRT 1DP disease control rating, HV activity / PUCCRT 3DC disease control rating, HV activity / PUCCRT 3DC, LV activity at 125.1 g/H (% Control rating) / PUCCRT 1DP, LV activity at 125.1 g/H (% Control rating) / PUCCRT 3DC disease control rating, LV activity at 125.1 g/H / PUCCRT 1DP disease control rating, LV activity at 125.1 g/H / PUCCRT 3DC disease control rating, HV activity at 100 ppm / PUCCRT 1DP disease control rating, HV activity at 100 ppm / HV activity at 100 ppm PUCCRT 3DC (disease control rating) / LV activity at 125.1 g/H PUCCRT 1DP (disease control rating) / LV activity at 125.1 g/H PUCCRT 3DC (disease control rating): A: > 80; B: ≤ 80; C: Not Tested; D: No Activity Observed in the Reported Assay; conditions: for PUCCRT 1DP disease control rating, HV activity at 100 ppm / PUCCRT 3DC disease control rating, HV activity at 100 ppm: high volume application; for PUCCRT 1DP disease control rating, HV activity at 100 ppm: 1 day protectant; for PUCCRT 3DC disease control rating, HV activity at 100 ppm: 3 day curative; for PUCCRT 1DP disease control rating, HV activity / PUCCRT 3DC disease control rating, HV activity: HV application at 100 ppm
[3] = 1 Day Protectant, wheat leaf blotch
[4] = 3 Day Curative, wheat leaf blotch
[5] = 1 Day Protectant, wheat brown rust
[6] = 3 Day Curative, wheat brown rust
[7] = low volume application, 125.1 g/H, 1 Day Protectant
[8] = low volume application, 125.1 g/H, 3 Day Curative

C=CC[C@@H](Oc1ccc(F)cc1F)[C@H](C)OC(=O)[C@H](C)NC(=O)c1nccc(OC)c1OCOC(C)=O [Cmpd 1075]
LV activity at 125.1 g/H SEPTTR 1DP (disease control rating) ([1]; low volume application, 125.1 g/H, 1 Day Protectant, wheat leaf blotch): D | LV activity at 125.1 g/H SEPTTR 3DC (disease control rating) ([1]; low volume application, 125.1 g/H, 3 Day Curative, wheat leaf blotch): B (≤ 80) | LV activity at 125.1 g/H PUCCRT 1DP (disease control rating) ([2]; low volume application, 125.1 g/H, 1 Day Protectant, wheat brown rust): A (> 80) | LV activity at 125.1 g/H PUCCRT 3DC (disease control rating) ([2]; low volume application, 125.1 g/H, 3 Day Curative, wheat brown rust): B (≤ 80)

CC(NC(=O)c1nccc(Br)c1O)C(=O)OC(C)C(Oc1ccccc1)C(C)C (stereo not shown) [Cmpd 1025]
SEPTTR 1DP disease control rating, HV activity at 100 ppm ([1]; 100 ppm): D | SEPTTR 3DC disease control rating, HV activity at 100 ppm ([1]; 100 ppm): B (≤ 80) | PUCCRT 1DP disease control rating, HV activity at 100 ppm ([2]; 100 ppm): A (> 80) | PUCCRT 3DC disease control rating, HV activity at 100 ppm ([2]; 100 ppm): B (≤ 80)

CCC(CC)C(Oc1cc(F)cc(Cl)c1)C(C)OC(=O)C(C)NC(=O)c1nccc(OC)c1O (stereo not shown) [Cmpd 383]
SEPTTR 1DP disease control rating, HV activity [1, 3]: B (≤ 80) | SEPTTR 3DC disease control rating, HV activity [1, 4]: A (> 80) | PUCCRT 1DP disease control rating, HV activity [2, 5]: A (> 80) | PUCCRT 3DC disease control rating, HV activity [2, 6]: A (> 80)

CCC(CC)[C@@H](Oc1cccc(Cl)c1)[C@H](C)OC(=O)[C@@H](NC(=O)c1nccc(OC)c1OCOC(C)=O)C(C)C [Cmpd 647]
SEPTTR 1DP, LV activity at 125.1 g/H (% Control rating) [1, 7]: A (> 80) | SEPTTR 3DC, LV activity at 125.1 g/H (% Control rating) [1, 8]: B (≤ 80) | PUCCRT 1DP, LV activity at 125.1 g/H (% Control rating) [2, 7]: A (> 80) | PUCCRT 3DC, LV activity at 125.1 g/H (% Control rating) [2, 8]: B (≤ 80)

CCC(CC)[C@@H](Oc1ccc(C(F)(F)F)cc1)[C@H](C)OC(=O)[C@@H](NC(=O)c1nccc(OC)c1O)C(C)C [Cmpd 412]
SEPTTR 1DP disease control rating, HV activity [1, 3]: B (≤ 80) | SEPTTR 3DC disease control rating, HV activity [1, 4]: B (≤ 80) | PUCCRT 1DP disease control rating, HV activity [2, 5]: B (≤ 80) | PUCCRT 3DC disease control rating, HV activity [2, 6]: D

COc1ccnc(C(=O)N[C@@H](C)C(=O)O[C@@H](C)[C@@H](CC(C)C)OCC2CC2)c1O [Cmpd 1045]
HV activity at 100 ppm SEPTTR 1DP (disease control rating) ([1]; HV application, 100 ppm, 1 Day Protectant, wheat leaf blotch): D | HV activity at 100 ppm SEPTTR 3DC (disease control rating) ([1]; HV application, 100 ppm, 3 Day Curative, wheat leaf blotch): B (≤ 80) | HV activity at 100 ppm PUCCRT 1DP (disease control rating) ([2]; HV application, 100 ppm, 1 Day Protectant, wheat brown rust): A (> 80) | HV activity at 100 ppm PUCCRT 3DC (disease control rating) ([2]; HV application, 100 ppm, 3 Day Curative, wheat brown rust): A (> 80)

COc1cccc(O[C@H](C2CCCC2)[C@H](C)OC(=O)[C@H](C)NC(=O)c2nccc(OC)c2O)c1 [Cmpd 847]
SEPTTR 1DP disease control rating, HV activity at 100 ppm ([1]; 100 ppm): B (≤ 80) | SEPTTR 3DC disease control rating, HV activity at 100 ppm ([1]; 100 ppm): A (> 80) | PUCCRT 1DP disease control rating, HV activity at 100 ppm ([2]; 100 ppm): A (> 80) | PUCCRT 3DC disease control rating, HV activity at 100 ppm ([2]; 100 ppm): A (> 80)

COc1ccnc(C(=O)NC(C)C(=O)OC(C)C(OCC2CC2)c2cccc(-c3ccccc3)c2)c1O (stereo not shown) [Cmpd 442]
SEPTTR 1DP disease control rating, HV activity [1, 3]: D | SEPTTR 3DC disease control rating, HV activity [1, 4]: B (≤ 80) | PUCCRT 1DP disease control rating, HV activity [2, 5]: B (≤ 80) | PUCCRT 3DC disease control rating, HV activity [2, 6]: B (≤ 80)

CCC(CC)[C@@H](Oc1ccc(-c2ccccc2)cc1)[C@H](C)OC(=O)[C@@H](NC(=O)c1nccc(OC)c1O)C(C)C [Cmpd 414]
SEPTTR 1DP disease control rating, HV activity [1, 3]: A (> 80) | SEPTTR 3DC disease control rating, HV activity [1, 4]: B (≤ 80) | PUCCRT 1DP disease control rating, HV activity [2, 5]: B (≤ 80) | PUCCRT 3DC disease control rating, HV activity [2, 6]: B (≤ 80)

CCC(CC)[C@@H](Oc1ccc(Cl)cc1Cl)[C@H](C)OC(=O)[C@@H](NC(=O)c1nccc(OC)c1OCOC(C)=O)C(C)C [Cmpd 649]
SEPTTR 1DP, LV activity at 125.1 g/H (% Control rating) [1, 7]: D | SEPTTR 3DC, LV activity at 125.1 g/H (% Control rating) [1, 8]: D | PUCCRT 1DP, LV activity at 125.1 g/H (% Control rating) [2, 7]: A (> 80) | PUCCRT 3DC, LV activity at 125.1 g/H (% Control rating) [2, 8]: B (≤ 80)
